Source: PubChem BioAssay (NCI)
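Exposure lasted 48 hours, with cells grown in 96-well plates and compounds tested at five concentrations. GI50: concentration for 50% inhibition of growth. TGI: total growth inhibition.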

Key:
Test in all cases: NCI tumour cell line growth inhibition, 48 h
HCT-15 colon = tested on: HCT-15 colon
SN12C renal = tested on: SN12C renal
SW-620 colon = tested on: SW-620 colon
NCI-H522 lung = tested on: NCI-H522 lung
MOLT-4 leukemia = tested on: MOLT-4 leukemia
SK-MEL-28 melanoma = tested on: SK-MEL-28 melanoma
UACC-257 melanoma = tested on: UACC-257 melanoma
NCI-H460 lung = tested on: NCI-H460 lung
NCI/ADR-RES ovarian = tested on: NCI/ADR-RES ovarian
MDA-MB-231 breast = tested on: MDA-MB-231 breast

Row | SMILES | TGI (HCT-15 colon) [µM] | TGI (SN12C renal) [µM] | TGI (SW-620 colon) [µM] | TGI (NCI-H522 lung) [µM] | TGI (MOLT-4 leukemia) [µM] | TGI (SK-MEL-28 melanoma) [µM] | TGI (UACC-257 melanoma) [µM] | TGI (NCI-H460 lung) [µM] | GI50 (HCT-15 colon) [nM] | GI50 (SW-620 colon) [nM] | GI50 (SK-MEL-28 melanoma) [µM] | GI50 (NCI-H460 lung) [nM] | TGI (NCI/ADR-RES ovarian) [µM] | GI50 (NCI/ADR-RES ovarian) [nM] | GI50 (SN12C renal) [nM] | GI50 (NCI-H522 lung) [µM] | GI50 (MDA-MB-231 breast) [nM] | TGI (MDA-MB-231 breast) [µM] | GI50 (UACC-257 melanoma) [µM] | GI50 (MOLT-4 leukemia) [nM]
1 | Nc1ccccc1C(=O)/C=C/c1c(O)ccc2ccccc12 | > 100 | > 100 | > 100 | > 100 | > 100 | > 100 | > 100 | > 100 | – | – | – | – | – | – | – | – | – | – | – | –
2 | Cn1cc(-c2csc(-c3cn(CCCCN4CCCCC4)c4ccccc34)n2)c2cccnc21 | 2.9 | – | 3.25 | – | – | 3.12 | – | 3.44 | 1530 | 1720 | 1.7 | 1830 | – | – | – | – | – | – | – | –
3 | CC1CC(O)C(=O)C(O[C@@H]2C[C@@H]3CC[C@@H]4[C@H](CC[C@]5(C)C(C6=CC(=O)OC6)CC[C@]45O)[C@@]3(C=O)C[C@H]2O)O1 (stereo not given in full) | 0.0716 | – | 0.158 | < 0.0274 | 0.0991 | 0.329 | 0.418 | 0.0414 | – | – | – | – | 0.0678 | – | – | – | – | – | – | –
4 | COC(=O)/C(=N/O)C(C(=O)C=C(C)C)C(=O)C(=O)Nc1nc2ccc([N+](=O)[O-])cc2s1 (stereo not given) | > 100 | > 100 | > 100 | > 100 | 72.9 | > 100 | > 100 | > 100 | – | – | – | – | – | – | – | – | – | – | – | –
5 | O=[N+]([O-])c1cccc(C2=NOC(C3CCCCC3)C2)c1 (stereo not given) | > 100 | > 100 | > 100 | > 100 | > 100 | > 100 | > 100 | > 100 | – | – | – | – | – | – | – | – | – | – | – | –
6 | O=C(/C(=C\c1c(-c2ccccc2)[nH]c2ccccc12)S(=O)(=O)c1ccccc1)c1ccccc1 | – | > 100 | – | > 100 | – | > 100 | > 100 | > 100 | – | – | > 100 | 5900 | > 100 | > 100000 | > 100000 | 91.8 | > 100000 | > 100 | > 100 | –
7 | CC1=NN(C(=O)CC(=O)Nc2ccccc2F)C(=O)C1N=Nc1ccccc1[N+](=O)[O-] (stereo not given) | > 100 | > 100 | > 100 | > 100 | > 100 | > 100 | > 100 | – | – | – | – | – | – | – | – | – | – | – | – | –
8 | Cc1ccc(C)c(N2C/C(=N\NC(=O)CC#N)C(c3nc4ccccc4s3)C(=O)C2=O)c1 (stereo not given) | > 100 | > 100 | > 100 | > 100 | > 100 | > 100 | > 100 | > 100 | – | – | – | – | – | – | – | – | – | – | – | –
9 | Cc1ccccc1C1=[N+]([O-])c2ccc(Cl)cc2C1=O | 31.9 | 28.5 | 40.9 | 23.9 | 24.3 | 35.9 | 26.4 | 30.9 | – | – | – | – | – | – | – | – | – | – | – | –
10 | O=C(Nc1cc(Cl)ccc1O)c1ccc(Nc2ccnc(C(F)(F)F)c2)cc1 | > 100 | 32 | > 100 | – | 6.6 | > 100 | > 100 | 6.91 | 2860 | 3730 | 4.6 | 2490 | > 100 | 2930 | 2650 | – | 2110 | 6.35 | 3.53 | 1750
